Laboratory results published in ChEMBL document CHEMBL5291721, “A preclinical secondary pharmacology resource illuminates target-adverse drug reaction associations of marketed drugs” (Nat Commun, 2023).

Tests used:
[1] = biological target: Voltage-dependent L-type calcium channel subunit alpha-1C (Rattus norvegicus, UniProt P22002); format: functional
D(1A) dopamine receptor = D(1A) dopamine receptor (Homo sapiens, UniProt P21728); format: functional, cell-based
[2] = biological target: T1, 5-hydroxytryptamine receptor 3A (Homo sapiens, UniProt P46098); format: functional
T1 sequence (P46098 whole entry): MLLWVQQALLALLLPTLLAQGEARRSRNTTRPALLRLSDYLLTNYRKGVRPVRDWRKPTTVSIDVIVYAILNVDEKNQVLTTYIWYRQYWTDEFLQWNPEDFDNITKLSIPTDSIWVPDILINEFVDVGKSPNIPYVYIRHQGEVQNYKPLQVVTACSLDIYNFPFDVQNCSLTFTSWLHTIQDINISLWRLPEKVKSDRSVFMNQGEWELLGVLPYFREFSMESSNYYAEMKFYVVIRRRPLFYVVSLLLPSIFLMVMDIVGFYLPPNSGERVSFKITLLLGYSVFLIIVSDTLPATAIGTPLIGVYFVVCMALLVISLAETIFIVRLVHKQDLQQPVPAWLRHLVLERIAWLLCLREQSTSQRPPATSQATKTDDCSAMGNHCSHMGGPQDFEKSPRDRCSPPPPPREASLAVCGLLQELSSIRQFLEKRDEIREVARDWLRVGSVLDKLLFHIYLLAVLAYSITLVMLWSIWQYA

[3] = biological target: T2, Alpha-2A adrenergic receptor (Homo sapiens, UniProt P08913); format: functional, cell-based
T2 sequence (P08913 whole entry): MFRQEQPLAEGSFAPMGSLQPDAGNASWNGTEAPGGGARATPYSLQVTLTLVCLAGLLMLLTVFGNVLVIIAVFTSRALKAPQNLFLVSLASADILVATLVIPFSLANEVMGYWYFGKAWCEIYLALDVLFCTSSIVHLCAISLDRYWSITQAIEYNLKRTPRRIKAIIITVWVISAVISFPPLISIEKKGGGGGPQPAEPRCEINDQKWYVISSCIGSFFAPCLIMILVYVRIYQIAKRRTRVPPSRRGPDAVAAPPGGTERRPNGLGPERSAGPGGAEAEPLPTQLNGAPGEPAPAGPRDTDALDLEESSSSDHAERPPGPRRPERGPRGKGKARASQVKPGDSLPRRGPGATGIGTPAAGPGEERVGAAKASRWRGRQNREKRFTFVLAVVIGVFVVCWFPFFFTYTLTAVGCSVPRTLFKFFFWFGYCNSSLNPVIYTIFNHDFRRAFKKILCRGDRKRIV

[4] = biological target: Neuronal acetylcholine receptor subunit alpha-4 (Homo sapiens, UniProt P43681)
Sequence of Neuronal acetylcholine receptor subunit alpha-4 (P43681 whole entry): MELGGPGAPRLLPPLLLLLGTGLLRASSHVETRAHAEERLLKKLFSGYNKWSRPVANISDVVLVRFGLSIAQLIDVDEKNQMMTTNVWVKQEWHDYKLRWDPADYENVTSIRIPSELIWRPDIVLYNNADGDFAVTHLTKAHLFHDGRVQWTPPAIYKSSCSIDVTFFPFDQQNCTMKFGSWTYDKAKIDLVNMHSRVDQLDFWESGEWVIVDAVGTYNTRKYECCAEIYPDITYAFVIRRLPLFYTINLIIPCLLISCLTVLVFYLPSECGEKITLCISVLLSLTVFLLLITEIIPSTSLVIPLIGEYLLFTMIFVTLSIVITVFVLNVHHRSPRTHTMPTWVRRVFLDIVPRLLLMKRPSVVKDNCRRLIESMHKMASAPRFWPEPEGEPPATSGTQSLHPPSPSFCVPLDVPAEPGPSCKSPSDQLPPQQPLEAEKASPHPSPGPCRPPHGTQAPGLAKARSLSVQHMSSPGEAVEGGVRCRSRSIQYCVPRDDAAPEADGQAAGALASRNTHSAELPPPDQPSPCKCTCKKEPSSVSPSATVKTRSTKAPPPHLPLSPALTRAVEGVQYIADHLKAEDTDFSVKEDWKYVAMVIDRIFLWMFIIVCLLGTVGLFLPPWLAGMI

[5] = biological target: T3, Equilibrative nucleoside transporter 1 (Homo sapiens, UniProt Q99808)
T3 sequence (Q99808 whole entry): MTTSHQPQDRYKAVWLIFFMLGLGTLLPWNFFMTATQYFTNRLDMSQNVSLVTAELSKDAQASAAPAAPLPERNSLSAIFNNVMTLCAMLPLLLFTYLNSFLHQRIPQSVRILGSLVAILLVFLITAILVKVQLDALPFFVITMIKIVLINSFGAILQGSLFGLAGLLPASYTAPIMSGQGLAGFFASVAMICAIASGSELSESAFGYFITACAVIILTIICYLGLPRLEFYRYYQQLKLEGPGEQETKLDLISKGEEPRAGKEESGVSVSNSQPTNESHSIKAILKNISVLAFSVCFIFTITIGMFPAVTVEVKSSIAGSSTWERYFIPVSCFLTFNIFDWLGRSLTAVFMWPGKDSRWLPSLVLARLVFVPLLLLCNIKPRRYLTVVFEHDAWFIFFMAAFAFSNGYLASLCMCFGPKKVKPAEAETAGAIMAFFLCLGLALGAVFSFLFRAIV

[6] = biological target: Gamma-aminobutyric acid receptor subunit alpha-1 (Rattus norvegicus, UniProt P62813); format: functional
Sequence of Gamma-aminobutyric acid receptor subunit alpha-1 (P62813 whole entry): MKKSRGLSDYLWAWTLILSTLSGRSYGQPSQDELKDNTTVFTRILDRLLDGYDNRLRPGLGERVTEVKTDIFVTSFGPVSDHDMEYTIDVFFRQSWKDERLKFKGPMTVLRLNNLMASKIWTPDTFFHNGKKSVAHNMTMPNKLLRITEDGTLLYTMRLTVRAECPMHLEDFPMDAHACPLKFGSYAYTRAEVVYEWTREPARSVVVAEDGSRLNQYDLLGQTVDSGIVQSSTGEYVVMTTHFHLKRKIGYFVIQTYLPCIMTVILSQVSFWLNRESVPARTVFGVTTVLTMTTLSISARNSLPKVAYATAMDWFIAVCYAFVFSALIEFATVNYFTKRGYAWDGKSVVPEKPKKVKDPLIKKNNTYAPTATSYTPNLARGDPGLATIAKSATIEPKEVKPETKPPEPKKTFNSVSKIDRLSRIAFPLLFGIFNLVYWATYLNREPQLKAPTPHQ

Adenosine receptor A2a = Adenosine receptor A2a (Homo sapiens, UniProt P29274)
Sequence of Adenosine receptor A2a (P29274 whole entry): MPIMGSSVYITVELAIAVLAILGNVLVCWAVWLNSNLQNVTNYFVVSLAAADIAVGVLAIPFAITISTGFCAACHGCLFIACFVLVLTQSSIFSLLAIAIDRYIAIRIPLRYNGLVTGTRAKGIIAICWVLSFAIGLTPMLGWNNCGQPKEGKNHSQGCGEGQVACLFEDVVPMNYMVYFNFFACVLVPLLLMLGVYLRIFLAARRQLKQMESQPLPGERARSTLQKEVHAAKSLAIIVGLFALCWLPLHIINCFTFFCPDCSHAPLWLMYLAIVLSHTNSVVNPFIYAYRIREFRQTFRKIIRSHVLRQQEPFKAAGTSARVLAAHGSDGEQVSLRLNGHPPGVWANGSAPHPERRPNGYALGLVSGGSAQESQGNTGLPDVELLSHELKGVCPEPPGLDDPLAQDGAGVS

[7] = biological target: T4, 5-hydroxytryptamine receptor 1A (Homo sapiens, UniProt P08908); format: functional, cell-based
T4 sequence (P08908 whole entry): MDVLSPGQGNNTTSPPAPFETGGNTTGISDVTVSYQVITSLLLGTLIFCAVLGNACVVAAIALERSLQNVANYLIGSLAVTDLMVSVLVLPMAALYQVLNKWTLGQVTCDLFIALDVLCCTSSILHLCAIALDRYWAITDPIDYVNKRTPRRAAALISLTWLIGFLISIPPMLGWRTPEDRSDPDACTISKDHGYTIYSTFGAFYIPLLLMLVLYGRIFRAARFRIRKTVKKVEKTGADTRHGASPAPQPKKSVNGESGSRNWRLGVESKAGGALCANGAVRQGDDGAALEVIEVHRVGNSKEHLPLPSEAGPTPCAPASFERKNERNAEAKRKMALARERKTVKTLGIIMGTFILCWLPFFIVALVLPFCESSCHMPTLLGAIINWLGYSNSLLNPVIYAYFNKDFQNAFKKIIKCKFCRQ

[8] = biological target: T5, Muscarinic acetylcholine receptor M2 (Homo sapiens, UniProt P08172); format: functional, cell-based
T5 sequence (P08172 whole entry): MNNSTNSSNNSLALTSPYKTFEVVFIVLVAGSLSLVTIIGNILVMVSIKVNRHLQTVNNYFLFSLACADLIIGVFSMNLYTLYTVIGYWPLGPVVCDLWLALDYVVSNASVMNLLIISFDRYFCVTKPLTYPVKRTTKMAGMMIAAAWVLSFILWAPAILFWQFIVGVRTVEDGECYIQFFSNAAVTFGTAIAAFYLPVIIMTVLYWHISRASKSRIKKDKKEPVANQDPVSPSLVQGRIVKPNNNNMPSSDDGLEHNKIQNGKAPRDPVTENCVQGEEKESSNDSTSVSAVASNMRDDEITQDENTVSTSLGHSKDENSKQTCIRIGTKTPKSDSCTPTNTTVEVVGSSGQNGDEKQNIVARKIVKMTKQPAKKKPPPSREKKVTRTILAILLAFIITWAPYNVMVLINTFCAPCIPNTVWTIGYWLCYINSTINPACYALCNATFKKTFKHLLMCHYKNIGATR

Vasopressin V1a receptor = Vasopressin V1a receptor (Homo sapiens, UniProt P37288)
Sequence of Vasopressin V1a receptor (P37288 whole entry): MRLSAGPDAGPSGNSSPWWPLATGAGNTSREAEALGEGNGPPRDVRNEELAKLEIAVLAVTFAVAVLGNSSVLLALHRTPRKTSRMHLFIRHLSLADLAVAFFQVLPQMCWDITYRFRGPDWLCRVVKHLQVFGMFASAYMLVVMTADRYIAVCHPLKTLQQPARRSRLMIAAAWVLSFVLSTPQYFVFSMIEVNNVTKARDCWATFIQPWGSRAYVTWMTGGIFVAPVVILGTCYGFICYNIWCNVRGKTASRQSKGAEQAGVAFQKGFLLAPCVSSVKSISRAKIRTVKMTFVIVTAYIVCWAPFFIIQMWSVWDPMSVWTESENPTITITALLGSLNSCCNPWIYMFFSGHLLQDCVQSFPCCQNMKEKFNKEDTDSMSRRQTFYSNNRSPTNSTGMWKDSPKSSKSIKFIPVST
Note: assay procedure not described here.

Sequence of D(1A) dopamine receptor (P21728 whole entry): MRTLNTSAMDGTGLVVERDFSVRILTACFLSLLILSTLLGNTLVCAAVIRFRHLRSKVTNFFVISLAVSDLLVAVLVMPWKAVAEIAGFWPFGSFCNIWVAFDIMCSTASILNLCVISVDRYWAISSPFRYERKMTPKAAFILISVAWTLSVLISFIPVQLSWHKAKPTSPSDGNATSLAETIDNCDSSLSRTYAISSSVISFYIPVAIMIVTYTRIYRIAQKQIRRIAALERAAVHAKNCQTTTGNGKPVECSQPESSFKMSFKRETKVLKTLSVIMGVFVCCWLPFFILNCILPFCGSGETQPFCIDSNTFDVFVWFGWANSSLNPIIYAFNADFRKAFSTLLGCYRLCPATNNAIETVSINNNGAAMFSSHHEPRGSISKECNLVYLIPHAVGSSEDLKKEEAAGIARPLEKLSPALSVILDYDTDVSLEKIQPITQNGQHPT
Sequence of Voltage-dependent L-type calcium channel subunit alpha-1C (P22002 whole entry): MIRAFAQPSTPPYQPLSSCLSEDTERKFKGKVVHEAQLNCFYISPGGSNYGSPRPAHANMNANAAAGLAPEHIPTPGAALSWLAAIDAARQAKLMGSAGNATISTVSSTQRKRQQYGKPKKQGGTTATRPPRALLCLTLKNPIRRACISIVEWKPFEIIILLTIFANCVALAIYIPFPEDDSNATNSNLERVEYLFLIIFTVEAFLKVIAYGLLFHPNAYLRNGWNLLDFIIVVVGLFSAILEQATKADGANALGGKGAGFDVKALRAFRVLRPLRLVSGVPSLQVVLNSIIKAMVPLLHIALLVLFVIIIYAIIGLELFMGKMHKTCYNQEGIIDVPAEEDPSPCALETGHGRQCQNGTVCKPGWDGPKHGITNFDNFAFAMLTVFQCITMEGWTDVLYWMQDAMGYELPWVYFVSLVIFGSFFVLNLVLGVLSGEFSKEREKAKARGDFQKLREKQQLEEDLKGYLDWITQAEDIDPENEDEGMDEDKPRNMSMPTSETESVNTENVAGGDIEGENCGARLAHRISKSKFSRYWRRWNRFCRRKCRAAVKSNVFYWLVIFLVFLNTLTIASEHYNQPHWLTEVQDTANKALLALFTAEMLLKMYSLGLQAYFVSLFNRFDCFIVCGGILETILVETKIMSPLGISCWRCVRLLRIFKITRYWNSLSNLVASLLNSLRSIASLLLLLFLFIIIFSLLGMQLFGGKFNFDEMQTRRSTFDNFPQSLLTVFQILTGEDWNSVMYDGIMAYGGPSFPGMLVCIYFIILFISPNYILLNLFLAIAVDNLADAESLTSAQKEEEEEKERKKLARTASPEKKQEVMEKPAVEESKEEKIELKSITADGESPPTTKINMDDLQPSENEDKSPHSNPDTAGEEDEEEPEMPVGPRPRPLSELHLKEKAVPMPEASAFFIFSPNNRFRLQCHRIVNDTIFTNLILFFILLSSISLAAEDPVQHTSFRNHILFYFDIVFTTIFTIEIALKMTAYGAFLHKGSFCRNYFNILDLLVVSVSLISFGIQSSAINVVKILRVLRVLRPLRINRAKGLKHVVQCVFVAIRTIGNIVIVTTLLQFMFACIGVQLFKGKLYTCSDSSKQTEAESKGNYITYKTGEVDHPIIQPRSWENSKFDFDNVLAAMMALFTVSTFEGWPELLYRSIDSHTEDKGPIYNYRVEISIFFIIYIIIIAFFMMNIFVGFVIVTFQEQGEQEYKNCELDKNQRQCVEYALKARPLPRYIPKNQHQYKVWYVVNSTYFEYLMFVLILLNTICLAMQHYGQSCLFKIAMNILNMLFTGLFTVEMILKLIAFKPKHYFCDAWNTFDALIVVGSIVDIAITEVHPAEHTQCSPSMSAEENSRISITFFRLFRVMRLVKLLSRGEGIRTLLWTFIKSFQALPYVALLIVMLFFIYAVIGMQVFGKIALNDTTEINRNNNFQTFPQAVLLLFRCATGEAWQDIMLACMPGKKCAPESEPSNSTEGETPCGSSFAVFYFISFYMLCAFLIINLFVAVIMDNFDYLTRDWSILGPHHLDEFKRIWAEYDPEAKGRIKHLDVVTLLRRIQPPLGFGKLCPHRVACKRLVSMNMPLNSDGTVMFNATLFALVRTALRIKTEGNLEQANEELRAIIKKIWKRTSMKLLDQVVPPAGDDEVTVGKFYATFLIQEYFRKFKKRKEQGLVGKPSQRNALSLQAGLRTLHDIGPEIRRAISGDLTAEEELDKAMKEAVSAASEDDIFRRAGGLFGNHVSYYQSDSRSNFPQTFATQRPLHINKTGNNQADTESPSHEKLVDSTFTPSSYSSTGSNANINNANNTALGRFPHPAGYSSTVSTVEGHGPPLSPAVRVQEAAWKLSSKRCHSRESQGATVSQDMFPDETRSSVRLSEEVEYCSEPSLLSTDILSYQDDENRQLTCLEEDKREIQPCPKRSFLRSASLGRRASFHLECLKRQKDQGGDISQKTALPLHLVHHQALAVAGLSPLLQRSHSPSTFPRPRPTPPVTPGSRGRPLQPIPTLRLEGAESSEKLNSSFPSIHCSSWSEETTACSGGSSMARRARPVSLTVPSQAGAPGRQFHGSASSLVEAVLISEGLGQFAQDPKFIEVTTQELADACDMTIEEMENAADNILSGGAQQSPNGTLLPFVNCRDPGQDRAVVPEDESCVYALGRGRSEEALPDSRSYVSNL

Row | SMILES | AC50 [1] [µM] | AC50 (D(1A) dopamine receptor) [µM] | AC50 [2] [µM] | AC50 [3] [µM] | AC50 [4] [µM] | AC50 [5] [µM] | AC50 [6] [µM] | AC50 (Adenosine receptor A2a) [µM] | AC50 [7] [µM] | AC50 [8] [µM] | AC50 (Vasopressin V1a receptor) [µM]
1 | OCc1cc(C(O)CNCCCCCCOCCCCc2ccccc2)ccc1O (centres undefined) [SALMETEROL] | > 10 | > 30 | > 30 | > 10 | > 10 | > 30 | > 10 | > 30 | 5.4 |  | 
2 | CCN(CC)CCN1C(=O)CN=C(c2ccccc2F)c2cc(Cl)ccc21 [FLURAZEPAM] | > 10 | > 30 | 20 | > 10 | > 10 | > 30 | 0.0512 | > 30 | > 30 | > 10 | 
3 | CN(C(=O)c1c(O)c2ccccc2n(C)c1=O)c1ccccc1 [ROQUINIMEX] |  |  |  |  | > 30 |  |  | > 30 |  |  | 
4 | Cn1c(=O)cc(N2CCC[C@@H](N)C2)n(Cc2ccccc2C#N)c1=O [ALOGLIPTIN] | > 10 |  | > 10 |  | > 10 | > 30 | > 10 | > 30 |  |  | > 10
5 | O=C1CN=C(c2ccccc2)c2cc([N+](=O)[O-])ccc2N1 [NITRAZEPAM] | > 10 | > 30 | > 30 | > 10 | > 10 | > 10 | 0.022 | > 10 | > 10 | > 10 | 
6 | Oc1ccc2c(c1)[C@@]13CCCC[C@@]1(O)[C@@H](C2)N(CC1CCC1)CC3 [BUTORPHANOL] |  | > 30 | > 30 | > 30 | > 30 | > 30 | > 30 | > 30 | > 30 | > 30 | > 30
7 | CC(=O)[C@]1(O)Cc2c(O)c3c(c(O)c2[C@@H](O[C@H]2C[C@H](N)[C@H](O)[C@H](C)O2)C1)C(=O)c1ccccc1C3=O [IDARUBICIN] | > 30 | > 30 | 13 |  | > 30 | > 30 | > 30 | > 30 |  |  | > 30
8 | CCC(COC(=O)c1cc(OC)c(OC)c(OC)c1)(c1ccccc1)N(C)C (centres undefined) [TRIMEBUTINE] | 21 | > 30 | > 30 | > 30 | 15 |  | > 30 | > 30 | > 30 | 1.2 | > 30
9 | COc1cc2ncnc(Nc3ccc(F)c(Cl)c3)c2cc1NC(=O)/C=C/CN1CCCCC1 [DACOMITINIB ANHYDROUS] |  |  |  |  | > 30 |  |  | > 30 |  | > 10 | 
10 | Nc1cc(-c2ccncc2)c[nH]c1=O [INAMRINONE] | > 10 | > 10 | > 30 | > 10 | > 10 | > 30 | > 10 | > 30 | > 10 | > 10 | 
11 | O=C(O)CCNC(=O)c1ccccc1 [BETAMIPRON] | > 30 | > 30 | > 30 | > 30 | > 30 | > 30 | > 30 | > 30 | > 30 | > 30 | 
12 | C=C[C@@]1(C)CC(=O)[C@]2(O)[C@@]3(C)[C@@H](O)CCC(C)(C)[C@@H]3[C@H](O)[C@H](OC(C)=O)[C@@]2(C)O1 [COLFORSIN] | > 30 |  | > 30 | > 30 | > 30 | > 30 | > 30 | > 30 | > 30 | 11 | > 30
13 | C/C(=C\C(=O)OCCCCCCCCC(=O)O)C[C@@H]1OC[C@H](C[C@@H]2O[C@H]2[C@@H](C)[C@H](C)O)[C@@H](O)[C@H]1O [MUPIROCIN] | > 10 | > 10 | > 30 | > 10 | > 10 | > 30 | > 10 | > 10 | > 10 | > 10 | 
14 | C#CCOc1ccc(N)cc1C(=O)NCCCC [PARSALMIDE] | > 30 | > 30 | > 30 | > 30 | > 30 |  | > 30 | > 30 | > 30 | > 30 | > 30
15 | Cn1cnc2c(F)c(Nc3ccc(Br)cc3Cl)c(C(=O)NOCCO)cc21 [SELUMETINIB] |  |  |  |  | > 10 | > 30 |  | > 30 |  |  | 
16 | NC(=O)CN1CCCC1=O |  | > 30 | > 30 | > 30 | > 30 |  | > 30 | > 30 | > 30 | > 30 | 
17 | CCN1CCCC1CNC(=O)c1cc(S(=O)(=O)CC)c(N)cc1OC (centres undefined) [AMISULPRIDE] |  | > 30 | > 30 | > 30 | > 30 | > 30 | > 30 | > 30 | > 30 | > 30 | 
18 | Cc1ncc2n1-c1ccc(Cl)cc1C(c1ccccc1F)=NC2 [MIDAZOLAM] | > 10 | > 30 | > 30 | > 10 | > 10 | > 30 | 0.0025 | > 30 | > 30 | > 10 | 
19 | NC1CCN(c2nc3c(cc2F)c(=O)c(C(=O)O)cn3-c2ccc(F)cc2F)C1 (centres undefined) [TOSUFLOXACIN] | > 30 | > 30 | > 30 | > 30 | > 30 | > 30 | > 30 | > 30 | > 30 | > 30 | 
